From US8809001B2, “High throughput assays for inhibitors and activators of PAQR receptors” (University of Florida Research Foundation, Inc., priority 2007, dated 2014)
Several values for one entry are separate records, joined by “and”; a condition that tells them apart may be missing. Equal values may be shown once.

Key:
Type in all cases: cell-based
PAQR9 = molecular target: T1, PAQR9 (Homo sapiens, UniProt Q6ZVX9); assay: FET3-lacZ reporter repression in yeast expressing PAQR9
T1 construct: expressed in transfected cells; host or cells: Saccharomyces cerevisiae BY4742, GAL1-driven pYES260 plasmid
T1 sequence (Q6ZVX9 1-377): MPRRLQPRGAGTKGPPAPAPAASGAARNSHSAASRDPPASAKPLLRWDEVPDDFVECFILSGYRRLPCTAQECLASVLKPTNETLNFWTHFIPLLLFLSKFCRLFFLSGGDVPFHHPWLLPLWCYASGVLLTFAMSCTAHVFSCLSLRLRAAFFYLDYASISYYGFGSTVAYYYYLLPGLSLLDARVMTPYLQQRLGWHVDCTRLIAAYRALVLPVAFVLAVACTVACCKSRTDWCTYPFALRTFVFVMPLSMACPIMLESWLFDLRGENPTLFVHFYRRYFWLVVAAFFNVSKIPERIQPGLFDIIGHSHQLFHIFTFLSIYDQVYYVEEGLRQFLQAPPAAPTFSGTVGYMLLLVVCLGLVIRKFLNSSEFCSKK
Excerpt: (§1) Plasmids and primers. Human PAQRs were cloned into various vectors by PCR from commercially/publically available cDNAs. PAQRs were cloned into the pYES260 (Melcher, 2000), pRS316 (Liu et al., 1992) or pGREG536 (Jansen et al., 2005) expression vectors using gap repair. The pJK90 plasmid containing a Dual Topology Reporter (DTR)-tagged OST4 gene driven by the constitutive TPI1 promoter was kindly provided by Dr. Gunnar von Heijne (Stockholm University) (Kim et al., 2003). The OST4 open reading frame in pJK90 was replaced with the PAQR6 and mPRα open reading frames by gap repair. Primers for all cloning reactions are listed herein. Proteins expressed in pYES260 have an N-terminal 6×-histidine tag followed by a TEV protease cleavage site. Proteins expressed in pGREG536 have an N-terminal 7×-HA tag. Proteins expressed in the pRS316 vector are untagged. The pYES260, pRS316 and pGREG536 vectors allow for galactose-inducible expression via the GAL1 promoter. […] The FET3-lacZ plasmid was previously described (Kupchak et al., 2007). Plasmids derived from pADM4 carrying hyperactive alleles of Gpa1p (Gpa1p^Q323L) (Slessareva et al., 2006) and Gpa2p (Gpa2p^Q300L) (Harashima et al., 2002) driven by the ADH1 promoter were kindly provided by Dr. Henrik Dohlman (UNC Chapel Hill). A pRS316-based plasmid containing the STE2 gene under the control of the GAL1 promoter (Feng et al., 2000) was kindly provided by Dr. Nicholas G. Davis (Wayne State University).
Assays and growth conditions. Strains were maintained using standard protocol and grown in synthetic defined (SD) media with the appropriate amino acids to match the auxotrophies of the individual strains. Low Iron Medium (LIM) contains EDTA to limit iron-bioavailability and its composition has been previously described (Kupchak et al., 2007). […] Cells were allowed to grow to mid-log phase at which time the activity of the FET3 gene was monitored using a FET3-lacZ promoter-reporter construct. lacZ activities are presented as a percentage of activity seen in untreated cells expressing the appropriate empty expression vector control. […]

Class II PAQRs = assay: FET3-lacZ response of the human PAQR panel to 10 μM progesterone: Class II
Excerpt: as §1, with “Plasmids derived from pADM4 carrying hyperactive alleles of Gpa1p (Gpa1p^Q323L) (Slessareva et al., 2006) and Gpa2p (Gpa2p^Q300L) (Harashima et al., 2002) driven by the ADH1 promoter were kindly provided by Dr. Henrik Dohlman (UNC Chapel Hill). A pRS316-based plasmid containing the STE2 gene under the control of the GAL1 promoter (Feng et al., 2000) was kindly provided by Dr. Nicholas G. Davis (Wayne State University).” left out
Assays and growth conditions. […] Cells were allowed to grow to mid-log phase at which time the activity of the FET3 gene was monitored using a FET3-lacZ promoter-reporter construct. lacZ activities are presented as a percentage of activity seen in untreated cells expressing the appropriate empty expression vector control. […]

mPRγ = molecular target: T2, mPRγ (Homo sapiens, UniProt Q9NXK6); assay: FET3-lacZ reporter repression in yeast expressing mPRγ
T2 construct: Full length and truncated mPRγ and mPRα were expressed in wild type cells grown in 2% galactose from the pGREG536 vector; expressed in transfected cells; host or cells: Saccharomyces cerevisiae (BY4742 wild type; also gpa mutants), GAL1-driven plasmids
T2 sequence (Q9NXK6 1-330): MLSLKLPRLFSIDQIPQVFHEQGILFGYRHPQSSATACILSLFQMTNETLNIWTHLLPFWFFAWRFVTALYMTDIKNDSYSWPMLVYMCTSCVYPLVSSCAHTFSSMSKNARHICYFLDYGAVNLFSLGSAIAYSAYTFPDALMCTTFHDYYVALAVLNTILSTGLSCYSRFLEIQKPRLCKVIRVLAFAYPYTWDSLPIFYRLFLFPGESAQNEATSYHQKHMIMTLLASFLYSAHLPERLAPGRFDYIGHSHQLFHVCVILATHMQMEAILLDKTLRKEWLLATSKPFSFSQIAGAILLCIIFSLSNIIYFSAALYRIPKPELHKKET
Excerpt: as §1
Assays and growth conditions. Strains were maintained using standard protocol and grown in synthetic defined (SD) media with the appropriate amino acids to match the auxotrophies of the individual strains. Low Iron Medium (LIM) contains EDTA to limit iron-bioavailability and its composition has been previously described (Kupchak et al., 2007). […] In brief, overnights of cells grown in SD-glucose media were re-inoculated into iron-deficient LIM to induce the expression of FET3. 2% galactose was used as a carbon source to induce full expression of PAQR genes driven by the GAL1 promoter, while 0.05% galactose/1.95% raffinose was used for reduced PAQR expression. All ligands were added to the growth medium upon re-inoculation into LIM. For experiments in which steroids were added as ligands, steroids were added from ethanol stocks and “untreated” controls are actually treated with an equal volume of ethanol to control for vehicle effects. Cells were allowed to grow to mid-log phase at which time the activity of the FET3 gene was monitored using a FET3-lacZ promoter-reporter construct. lacZ activities are presented as a percentage of activity seen in untreated cells expressing the appropriate empty expression vector control. For individual experiments, each data point has been done in triplicate and the error bars represent +/−1 standard deviation. All experiments were performed at least three times and a representative experiment is shown. EC50 values were obtained using the web-based BioDataFit software using sigmoidal curve-fitting. (web site changbioscience.com/stat/ec50.html)

**Q.** CC(=O)[C@H]1CC[C@H]2[C@@H]3CCC4=CC(=O)CC[C@]4(C)[C@H]3CC[C@]12C [Progesterone, progesterone] was tested. Which EC50 (PAQR9; PAQR9, Table 3) did it give?
**A.** Its EC50 is 13.8 nM.

**Q.** And the “EC50 for progesterone activation of PAQR9 relative to the other four Class II receptors” value (PAQR9; higher than the other four Class II receptors)?
**A.** Its value is “approximately 10 fold”.

**Q.** What about the “agonist effect on all five Class II PAQRs” value (Class II PAQRs) of the same molecule?
**A.** The value was “effective agonist”.

**Q.** And the EC50 (mPRγ; mPRγ column of Table 4, ligand alone)?
**A.** Its EC50 is 1.1 nM.

**Q.** What about the EC50 (mPRγ; mPRγ, Table 3, iron deficient LIM, 0.05% galactose) of the same molecule?
**A.** Its EC50 is 1.3 nM and 1 to 3 nM.

**Q.** What about the EC50 (mPRγ; mPRγ, progesterone in the presence of 100 nM RU-486) of the same molecule?
**A.** The EC50 was 15.5 nM.

**Q.** And the EC50 (mPRγ; mPRγ, progesterone in the presence of 10 μM testosterone)?
**A.** The EC50 was 10.7 nM.
